The values that follow are results of earlier work, collected in patent US20110303570A1, “PACKAGE OF SOLID PHARMACEUTICAL PREPARATION” (Astellas Pharma Inc., priority 2009, published 2011).

The conditions of the series: administered either orally or directly into the colon of a mammal.

On to `CC(OC(=O)NCC1(CC(=O)O)CCCCC1)OC(=O)C(C)C` (stereo not drawn) [1-{[(α-isobutanoyloxyethoxy)carbonyl]aminomethyl}-1-cyclohexane acetic acid], for which the Bioavailability as gabapentin result is on record as “high”.
